Measured values reported in patent US20240083861A1, “HSD17B13 INHIBITORS AND USES THEREOF” (FL2022-001, Inc., priority 2020, published 2024).

The compounds below were run against T1, Recombinant human HSD17B13 enzyme (Homo sapiens, UniProt Q7Z5P4) (assay: HSD17b13 NAD(P)H-Glo biochemical assay). Details: 50 uM estradiol, 1 mM NAD+, NAD(P)H-Glo luminescence; read-out: HSD17β13 IC50.
T1 sequence (Q7Z5P4 20-300): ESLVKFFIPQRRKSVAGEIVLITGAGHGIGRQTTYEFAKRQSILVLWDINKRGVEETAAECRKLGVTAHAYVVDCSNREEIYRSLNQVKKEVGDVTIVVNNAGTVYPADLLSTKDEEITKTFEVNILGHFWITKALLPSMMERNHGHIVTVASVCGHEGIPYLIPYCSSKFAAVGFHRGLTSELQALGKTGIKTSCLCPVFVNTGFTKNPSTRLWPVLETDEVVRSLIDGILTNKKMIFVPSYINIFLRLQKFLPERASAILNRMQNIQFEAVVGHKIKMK
Experimental: Example B-1: HSD17b13 NAD(P)H-Glo Biochemical Assay
Recombinant human HSD17B13 enzyme. Substrate: estradiol (Sigma β-Estradiol E8875), 100 mM in DMSO. Cofactor: NAD+ Grade I free acid (Sigma 10127965001), 20 mM in H2O. Assay buffer final concentration: 20 mM Tris pH7.4 with 0.002% Tween-20 and 0.02% BSA. Assay performed in 384 well solid bottom plate (Corning 3570). Enzymatic activity detected by NAD(P)H-Glo™ Detection System (Promega G9062).
Inhibitor compounds were serially diluted in DMSO and then further diluted in assay buffer to a 10× concentration consisting of 1% DMSO.
HSD17b13 enzyme was diluted in 1× assay buffer to the desired enzyme concentration based on the specific activity of the enzyme lot. 20 uL of diluted enzyme was added to each well along with 2.5 uL of 10× inhibitor solution. Assay plate was incubated at RT for 20 minutes, and then 2.5 uL of a 10× substrate/cofactor mix was added to each well for a final concentration of 50 uM estradiol and 1 mM NAD+. Assay plate was incubated at 37° C. for 3 hours. NAD(P)H-Glo™ Detection System reagents were prepared according to manufacturer's specifications, and 25 uL was added to each well. After incubating for 1 hour at RT, luminescence was measured.

Compound	IC50 [nM]
CN1CC(NC(=O)c2ccc3oc(-c4cc(C(F)(F)F)c(F)c(O)c4F)nc3c2)C1 [Compound 1.18, 2-(2,4-Difluoro-3-hydroxy-5-(trifluoromethyl)phenyl)-N-(1-methylazetidin-3-yl)benzo[d]oxazole-5-carboxamide]	1000 to 30000
O=C(NC1COC1)c1ccc2oc(-c3cc(C(F)(F)F)c(F)c(O)c3F)nc2c1 [Compound 1.19, 2-(2,4-Difluoro-3-hydroxy-5-(trifluoromethyl)phenyl)-N-(oxetan-3-yl)benzo[d]oxazole-5-carboxamide]	100 to 1000
CS(=O)(=O)N1CC(NC(=O)c2ccc3oc(-c4cc(C(F)(F)F)c(F)c(O)c4F)nc3c2)C1 [Compound 1.20, 2-(2,4-Difluoro-3-hydroxy-5-(trifluoromethyl)phenyl)-N-(1-(methylsulfonyl)azetidin-3-yl)benzo[d]oxazole-5-carboxamide]	100 to 1000
O=C(NC12COC(C1)C2)c1ccc2oc(-c3cc(C(F)(F)F)c(F)c(O)c3F)nc2c1 [Compound 1.21, N-(2-Oxabicyclo[2.1.1]hexan-4-yl)-2-(2,4-difluoro-3-hydroxy-5-(trifluoromethyl)phenyl)benzo[d]oxa-zole-5-carboxamide]	100 to 1000
O=C(NC1(CCO)CCC1)c1ccc2oc(-c3cc(C(F)(F)F)c(F)c(O)c3F)nc2c1 [Compound 1.27, 2-(2,4-Difluoro-3-hydroxy-5-(trifluoromethyl)phenyl)-N-(1-(2-hydroxyethyl)cyclobutyl)benzo[d]oxa-zole-5-carboxamide]	100 to 1000
O=C(NC1(CO)CCC1)c1ccc2oc(-c3cc(C(F)(F)F)c(F)c(O)c3F)nc2c1 [Compound 1.28, 2-(2,4-Difluoro-3-hydroxy-5-(trifluoromethyl)phenyl)-N-(1-(hydroxymethyl)cyclobutyl)benzo[d] oxazole-5-carboxamide]	100 to 1000
O=C(NCC1(O)CCC1)c1ccc2oc(-c3cc(C(F)(F)F)c(F)c(O)c3F)nc2c1 [Compound 1.30, 2-(2,4-Difluoro-3-hydroxy-5-(trifluoromethyl)phenyl)-N-((1-hydroxycyclobutyl)methyl)benzo[d] oxazole-5-carboxamide]	100 to 1000
O=C(NC1CCC1)c1ccc2oc(-c3cc(O)cc(C(F)(F)F)c3)nc2c1 [Compound 2, N-Cyclobutyl-2-(3-hydroxy-5-(trifluoromethyl)phenyl)benzo[d]oxazole-5-carboxamide]	100 to 1000
Oc1cc(-c2nc3cc(-c4ccc(O)c(Cl)c4)ccc3o2)ccc1F [Compound 3, 2-Chloro-4-(2-(4-fluoro-3-hydroxyphenyl)benzo[d]oxazol-5-yl)phenol]	100 to 1000
Oc1cc(-c2nc3ccc(-c4ccc(O)c(Cl)c4)cc3o2)ccc1F [Compound 3.01, 2-Chloro-4-(2-(4-fluoro-3-hydroxyphenyl)benzo[d]oxazol-6-yl)phenol]	100 to 1000
Oc1ccc(-c2ccc3oc(-c4ccc(F)c(O)c4)nc3c2)cc1 [Compound 3.02, 2-Fluoro-5-(5-(4-hydroxyphenyl)benzo[d]oxazol-2-yl)phenol]	100 to 1000
Oc1cccc(-c2ccc3oc(-c4ccc(F)c(O)c4)nc3c2)c1 [Compound 3.03, 2-Fluoro-5-(5-(3-hydroxyphenyl)benzo[d]oxazol-2-yl)phenol]	1000 to 30000
CS(=O)(=O)N1CCN(c2ccc3oc(-c4ccc(F)c(O)c4)nc3c2)CC1 [Compound 4, 2-Fluoro-5-(5-(4-(methylsulfonyl)piperazin-1-yl)benzo[d]oxazol-2-yl)phenol]	100 to 1000
CS(=O)(=O)N1CCN(c2ccc3nc(-c4cc(O)cc(C(F)(F)F)c4)oc3c2)CC1 [Compound 4.01, 3-(6-(4-(Methylsulfonyl)piperazin-1-yl)benzo[d]oxazol-2-yl)-5-(trifluoromethyl)phenol]	100 to 1000

The remaining lines, values ahead:

IC50 [nM]	Compound
100 to 1000	CN(C(=O)c1ccc2oc(-c3cc(C(F)(F)F)c(F)c(O)c3F)nc2c1)C1CCC1 [Compound 1.15, N-Cyclobutyl-2-(2,4-difluoro-3-hydroxy-5-(trifluoromethyl)phenyl)-N-methylbenzo[d]oxazole-5-carboxamide]
100 to 1000	CO[C@H]1C[C@H](NC(=O)c2ccc3oc(-c4cc(C(F)(F)F)c(F)c(O)c4F)nc3c2)C1 [Compound 1.16, 2-(2,4-Difluoro-3-hydroxy-5-(trifluoromethyl)phenyl)-N-(trans-3-methoxycyclobutyl)benzo[d]oxazole-5-carboxamide]
100 to 1000	O=C(c1ccc2oc(-c3cc(C(F)(F)F)c(F)c(O)c3F)nc2c1)N1CCC1 [Compound 1.17, Azetidin-1-yl(2-(2,4-difluoro-3-hydroxy-5-(trifluoromethyl)phenyl)benzo[d]oxa-zol-5-yl)methanone]
< 100	O=C(NC1CCCC1)c1ccc2oc(-c3cc(C(F)(F)F)c(F)c(O)c3F)nc2c1 [Compound 1.22, N-Cyclopentyl-2-(2,4-difluoro-3-hydroxy-5-(trifluoromethyl)phenyl)benzo[d]oxa-zole-5-carboxamide]
< 100	CC1(NC(=O)c2ccc3oc(-c4cc(C(F)(F)F)c(F)c(O)c4F)nc3c2)CCC1 [Compound 1.23, 2-(2,4-Difluoro-3-hydroxy-5-(trifluoromethyl)phenyl)-N-(1-methylcyclobutyl)benzo[d]oxazole-5-carboxamide]
< 100	O=C(NC12CC(C1)C2)c1cc2nc(-c3cc(O)c(F)c(C(F)(F)F)c3)oc2cn1 [Compound 1.24, N-(Bicyclo[1.1.1]pentan-1-yl)-2-(4-fluoro-3-hydroxy-5-(trifluoromethyl)phenyl)oxazolo[5,4-c]pyridine-6-carboxamide]
< 100	N#CC1(NC(=O)c2ccc3oc(-c4cc(C(F)(F)F)c(F)c(O)c4F)nc3c2)CCC1 [Compound 1.25, N-(1-Cyanocyclobutyl)-2-(2,4-difluoro-3-hydroxy-5-(trifluoromethyl)phenyl)benzo[d]oxa-zole-5-carboxamide]
< 100	COCC1(NC(=O)c2ccc3oc(-c4cc(C(F)(F)F)c(F)c(O)c4F)nc3c2)CCC1 [Compound 1.26, 2-(2,4-Difluoro-3-hydroxy-5-(trifluoromethyl)phenyl)-N-(1-(methoxymethyl)cyclobutyl)benzo[d] oxazole-5-carboxamide]
< 100	N#CCC1(NC(=O)c2ccc3oc(-c4cc(C(F)(F)F)c(F)c(O)c4F)nc3c2)CCC1 [Compound 1.29, N-(1-(Cyanomethyl)cyclobutyl)-2-(2,4-difluoro-3-hydroxy-5-(trifluoromethyl)phenyl)benzo[d]oxa-zole-5-carboxamide]
< 100	O=C(NC12CC(C1)C2)c1ccc2oc(-c3cc(O)cc(C(F)(F)F)c3)nc2c1 [Compound 2.01, N-(Bicyclo[1.1.1]pentan-1-yl)-2-(3-hydroxy-5-(trifluoromethyl)phenyl)benzo[d]oxa-zole-5-carboxamide]

Same assay, conditions: at 10 uM compound; read-out: HSD17β13 % inhibition at 10 uM

inhibition at 10 µM [%]	Compound
50	O=C(NC12CC(C1)C2)c1ccc2oc(-c3cc(C(F)(F)F)cc(O)n3)nc2c1 [Compound 1.31, N-(Bicyclo[1.1.1]pentan-1-yl)-2-(6-hydroxy-4-(trifluoromethyl)pyridin-2-yl)benzo[d]oxazole-5-carboxamide]

Same assay, conditions: at 30 uM compound; read-out: HSD17β13 % inhibition at 30 uM

inhibition at 30 µM [%]	Compound
20	Cc1cc(-c2nc3cc(C(=O)NC4CCC4)ccc3o2)cc(O)c1F [Compound 2.02, N-Cyclobutyl-2-(4-fluoro-3-hydroxy-5-methylphenyl)benzo[d]oxazole-5-carboxamide]
